Key:
VCAM-1 = assay: In Vitro VCAM-1 Assay (TNF-α stimulated endothelial cells, cell-surface ELISA); format: cell-based; details: Homo sapiens, Endothelial cell, 16 h, primary human aortic (HAEC) or pulmonary (HPAEC) endothelial cells, TNF-α 1 ng/ml, approximately 16 hours, ELISA OD 450 nm
Method: Cell Culture and compound dosing: Cultured primary human aortic (HAEC) or pulmonary (HPAEC) endothelial cells were obtained from Clonetics, Inc., and were used below passage 9. Cells were seeded in 96 well plates such that they would reach 90–95% confluency by the following day. On the following day the cells were stimulated with TNF-α (1 ng/ml) in the presence or absence of compounds dissolved in DMSO such that the final concentration of DMSO is 0.25% or less. To establish a dose curve for each compound, four concentrations in 2- to 5-fold increments were used. Cells were exposed to TNF-α and compounds for approximately 16 hours. The next day the cells were examined under microscope to score for visual signs of toxicity or cell stress.
Following 16 hr exposure to TNF-α and compound the media was discarded and the cells were washed once with Hanks Balanced Salt Solution (HBSS)/Phosphate buffered saline (PBS) (1:1). Primary antibodies against VCAM-1 (0.25 μg/ml in HBSS/PBS+5% FBS) were added and incubated for 30–60 minutes at 37° C. Cells were washed with HBSS/PBS three times, and secondary antibody Horse Radish Peroxidase (HRP)-conjugated goat anti-mouse IgG (1:500 in HBSS/PBS+5% FBS) were added and incubated for 30 minutes at 37° C. Cells were washed with HBSS/PBS four time and TMB substrate were added and incubated at room temperature in the dark until there was adequate development of blue color. The length of time of incubation was typically 5–15 minutes. 2N sulfuric acid was added to stop the color development and the data was collected by reading the absorbance on a BioRad ELISA plate reader at OD 450 nm. The results are expressed as IC50 values (the concentration (micromolar) of compound required to inhibit 50% of the maximal response of the control sample stimulated by TNF-α only).

Row | IC50 (VCAM-1) | melting point | SMILES
1 | > 10 µM | 64 to 68 °C | COc1cc(OC)c(N2CCCC2)cc1/C=C/C(=O)c1ccc(S(=O)(=O)NCCCN2CCN(C)CC2)cc1 [Example 55, 4-[3E-(2,4-Dimethoxy-5-pyrrolidin-1-ylphenyl)acryloyl]-N-[3-(4-methyl-piperazin-1-yl)propyl]benzenesulfonamide]
2 | > 10 µM | 155 to 158 °C | COc1cc(OC)c(N2CCCC2)cc1/C=C/C(=O)c1ccc(S(=O)(=O)NCC(=O)O)cc1 [Example 56, {4-[3E-(2,4-Dimethoxy-5-pyrrolidin-1-ylphenyl)acryloyl]benzenesulfonylamino}acetic acid]
3 | < 5 µM | 206 to 208 °C | COc1cc(OC)c(-c2cc3ccccc3[nH]2)cc1/C=C/C(=O)c1ccc(S(=O)(=O)Nc2ccccn2)cc1 [Example 57, 4-{3E-[5-(1H-Indol-2-yl)-2,4-dimethoxyphenyl]acryloyl}-N-pyridin-2-ylbenzenesulfonamide]

— patent US7173129B2, “Sulfonamide-substituted chalcone derivatives and their use to treat diseases” (Athero Genics, Inc., priority 2003, dated 2007)
